Measured values reported in BindingDB's records for doi:10.1021/cb700072n (University of New Mexico Health Sciences Center, 2007).

How the values were obtained:
[1] = molecular target: G-protein coupled estrogen receptor 1 (Homo sapiens, UniProt Q99527); test: Competitive Binding Assay
Description: (§1) Competitive binding of estrogen to GPR30 and ER alpha were conducted using COS-7 cells transfected with GPR30-GFP or ER alpha-GFP and fluorescent estrogen, E2-Alexa633 labeled as a reporter.

Estrogen receptor = molecular target: T1, Estrogen receptor (Homo sapiens, UniProt P03372); test: Competitive Binding Assay
T1 sequence (P03372 whole entry): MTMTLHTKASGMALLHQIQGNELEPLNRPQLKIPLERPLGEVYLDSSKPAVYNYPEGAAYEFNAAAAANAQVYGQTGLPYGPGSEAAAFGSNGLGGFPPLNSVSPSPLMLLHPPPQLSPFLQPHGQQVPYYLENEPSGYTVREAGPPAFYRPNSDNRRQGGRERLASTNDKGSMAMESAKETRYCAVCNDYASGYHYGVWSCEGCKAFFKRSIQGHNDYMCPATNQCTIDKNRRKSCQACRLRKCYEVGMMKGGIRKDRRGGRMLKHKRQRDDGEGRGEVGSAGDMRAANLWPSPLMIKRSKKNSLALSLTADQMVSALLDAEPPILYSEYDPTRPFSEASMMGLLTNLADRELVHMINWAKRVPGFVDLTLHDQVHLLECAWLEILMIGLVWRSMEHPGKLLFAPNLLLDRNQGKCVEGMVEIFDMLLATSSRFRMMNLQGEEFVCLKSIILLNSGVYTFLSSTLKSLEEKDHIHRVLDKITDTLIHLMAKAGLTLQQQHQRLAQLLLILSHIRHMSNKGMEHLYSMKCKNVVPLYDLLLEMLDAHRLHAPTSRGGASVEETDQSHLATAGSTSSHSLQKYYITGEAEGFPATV
Description: as §1

G-protein coupled estrogen receptor 1, sequence (Q99527 whole entry): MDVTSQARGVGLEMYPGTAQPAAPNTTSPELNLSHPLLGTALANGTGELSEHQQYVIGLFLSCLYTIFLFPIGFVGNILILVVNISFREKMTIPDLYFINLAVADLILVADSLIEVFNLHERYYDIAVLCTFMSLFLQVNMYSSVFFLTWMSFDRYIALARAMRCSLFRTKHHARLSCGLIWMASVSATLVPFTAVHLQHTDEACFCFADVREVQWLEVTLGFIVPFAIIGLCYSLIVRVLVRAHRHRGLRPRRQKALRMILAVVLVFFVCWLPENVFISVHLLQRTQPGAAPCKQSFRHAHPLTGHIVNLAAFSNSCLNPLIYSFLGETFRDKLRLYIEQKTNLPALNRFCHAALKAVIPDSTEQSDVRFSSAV

| SMILES | Ki [1] | Ki (Estrogen receptor) |
| --- | --- | --- |
| C[C@]12CCC3c4ccc(O)cc4CCC3C1CC[C@@]2(O)C#Cc1cccc(C(=O)O)c1 (stereo partly drawn) [E2-COO-] | 30 nM | 2 nM |
| C[C@]12CCC3c4ccc(O)cc4CCC3C1CC[C@@]2(O)C#Cc1ccc([N+](C)(C)C)cc1 (stereo partly drawn) [E2-NMe3+] | 17 nM | 1.4 nM |
| CC(C)(C)OC(=O)NCc1ccc(C#C[C@]2(O)CCC3C4CCc5cc(O)ccc5C4CC[C@@]32C)cc1 (stereo partly drawn) [E2-NB] | 16 nM | 2.7 nM |
| C[C@]12CCC3c4ccc(O)cc4CCC3C1CC[C@@]2(O)C#Cc1ccc(CN)cc1 (stereo partly drawn) [E2-NH3+] | 25 nM | 4.1 nM |
